Source: patent US20220386582A1, “METHOD AND DEVICE TO TRAP ACARIDS” (DOMOBIOS, priority 2015, published 2022)

Assays:
Format in all cases: in vivo
[1] = test system: Dermatophagoides farinae; assay: Toxicity, indirect contact (inhalation, 24 hours)
Description: (§1) FIG. 10 is a set of graphs showing the percentage of dead mites after 24 hours of inhalation of lavandulol at different concentrations (0.18 μL, 3 μL or 8 μL of pure solution) or water (Ctrl). Four species of mites were tested: Dermatophagoides pteronyssinus (DP), Dermatophagoides farinae (DF), Tyrophagus putrescentiae (TP) and Acarus siro (AS).
(§2) The species studied were two species of dust common in mattresses in Eurasia (Dermatophagoides pteronyssinus and Dermatophagoides farinae), and two species of stored food mites common in Eurasia (Tyrophagus putrescentiae and Acarus siro). These four species were reared under defined conditions (20° C. and 75% relative humidity). The house dust mites were fed with human flakes (skin and whiskers obtained by cleaning electric shavers) and stored food mites were fed with fish food. The experiments were performed at 20° C. and 40% relative humidity.
(§3) For each of the four species, a group of a mites (10<n<25) was placed in a Petri dish (diameter 5.5 cm). This dish was then recovered by a filter paper that enabled gas-exchange and placed into another dish (diameter 9 cm), in which was placed a piece of paper filter (5×1 cm) impregnated with lavandulol at various concentration (0.18 μL, 3 μL, or 8 μL of pure solution, corresponding respectively to 0.15 mg, 2.5 mg or 6.67 mg of lavandulol), or with water. The bigger of the two dishes was then covered.
(§4) After 24 hours, the number of dead mites were counted. The death of a mite was determined by reaction to a stimulation with a needle: lack of reaction and the persistence of immobility indicated death. This experiment was repeated three times with the four species.
(§5) Observations and counting of mites were made under binocular microscope (magnification 10×). The set-up is illuminated with a cold lamp (KL 1500 LCD, Schott ●), the lighting is symmetric and the light intensity was 50Klux. The experimental conditions were controlled in the room (T° C.: 19-22° C. and RH 40%).

[2] = test system: Dermatophagoides pteronyssinus; assay: Toxicity, indirect contact (inhalation, 24 hours)
Description: as §1, §2, §3, §4, §5

[3] = test system: Acarus siro; assay: Toxicity, indirect contact (inhalation, 24 hours)
Description: as §1, §2, §3, §4, §5

[4] = test system: Tyrophagus putrescentiae; assay: Toxicity, indirect contact (inhalation, 24 hours)
Description: as §1, §2, §3, §4, §5

[5] = test system: Acarus siro; assay: Binary choice test in Petri dish, felt with lavandulol composition versus felt with water
Description: (§6) A group of mites (20<n<40) was placed in the center of a Petri dish (diameter 5.5 cm) around which two felt pieces (density of 70 mg/cm^2, thickness of 2 mm) were placed equidistant. The first felt piece was impregnated with water and the other felt piece was impregnated with the lavandulol composition at different dilutions. The diluted lavandulol solutions were prepared from a 90-95% pure lavandulol stock solution (Phytolab, catalog No. 80887). Mites moved spontaneously towards one of the two felt pieces. The number of mites migrating to one side or to the other side was counted and this distribution was compared to a situation where mites were placed in a Petri dish containing two felt pieces impregnated with water. Observations, counting, and identification of mites' species were performed under binocular microscope (magnification 10×). The set-up is illuminated with a cold lamp (KL 1500 LCD, Schott ●), the lighting is symmetric and the light intensity was 50Klux. The experimental conditions were controlled in the room (T° C.: 19-22° C. and RH 40%).

[6] = test system: Tyrophagus putrescentiae; assay: as above
Description: as §6

[7] = pure lavandulol volumes of 3 μL and 8 μL
[8] = at least at a dilution of 10^−3, even more at least at 10^−6

Compound: C=C(C)C(CO)CC=C(C)C (centres unmarked) [Lavandulol, 5-Methyl-2-prop-1-en-2-ylhex-4-en-1-ol]
- mortality of mites by inhalation ([1]; lavandulol volume of 0.18 μL): not lethal
- mortality of mites by inhalation [1, 7]: high mortality
- mortality of mites by inhalation ([2]; lavandulol volume of 0.18 μL): not lethal
- mortality of mites by inhalation [2, 7]: high mortality
- mortality of mites by inhalation ([3]; lavandulol volume of 0.18 μL): not lethal
- mortality of mites by inhalation [3, 7]: high mortality
- mortality of mites by inhalation ([4]; lavandulol volume of 0.18 μL): not lethal
- mortality of mites by inhalation [4, 7]: high mortality
- Number of mites on the felt piece impregnated with the lavandulol composition ([5]; Dilution 10^−3): 44%
- Number of mites on the felt piece impregnated with the lavandulol composition ([5]; Dilution 10^−6): 48%
- Number of mites on the felt piece impregnated with the lavandulol composition ([5]; Dilution 10^−9): 40%
- Number of mites on the felt piece impregnated with the lavandulol composition ([5]; Dilution 10^−12): 55%
- Number of mites on the felt piece impregnated with the lavandulol composition ([5]; Dilution 10^−14): 54%
- Number of mites on the felt piece impregnated with the lavandulol composition ([5]; Dilution 10^−16): 50%
- Number of mites on the felt piece impregnated with the lavandulol composition ([5]; Dilution Undiluted): 1.1%
- attraction of mites (in words) [5, 8]: efficiently attracts mites
- attraction of mites (in words) ([5]; undiluted solution): fails to attract mites
- Number of mites on the felt piece impregnated with the lavandulol composition ([6]; Dilution 10^−3): 34%
- Number of mites on the felt piece impregnated with the lavandulol composition ([6]; Dilution 10^−6): 44%
- Number of mites on the felt piece impregnated with the lavandulol composition ([6]; Dilution 10^−7): 48%
- Number of mites on the felt piece impregnated with the lavandulol composition ([6]; Dilution 10^−9): 38%
- Number of mites on the felt piece impregnated with the lavandulol composition ([6]; Dilution 10^−12): 47%
- Number of mites on the felt piece impregnated with the lavandulol composition ([6]; Dilution 10^−13): 49%
- Number of mites on the felt piece impregnated with the lavandulol composition ([6]; Dilution 10^−14): 69%
- Number of mites on the felt piece impregnated with the lavandulol composition ([6]; Dilution 10^−15): 63%
- Number of mites on the felt piece impregnated with the lavandulol composition ([6]; Dilution 10^−16): 60%
- Number of mites on the felt piece impregnated with the lavandulol composition ([6]; Dilution Undiluted): 2%
- attraction of mites (in words) [6, 8]: efficiently attracts mites
- attraction of mites (in words) ([6]; undiluted solution): fails to attract mites
